According to patent US11291659B2, “P38 kinase inhibitors reduce DUX4 and downstream gene expression for the treatment of FSHD” (Fulcrum Therapeutics, Inc., priority 2017, dated 2022):

Tests used:
Type in all cases: cell-based, Human
[1] = test system: MBD3L2 mRNA (DUX4 downstream gene); assay: MBD3L2 mRNA expression by qPCR in FSHD myotubes
Experimental: Cell Plating: Performed three days prior to treatment, 10000 cells were plated per well on gelatinized 96-well plates, or 100000 cells on gelatinized 6-well plates.
(§1) For ASO or compound treatments cells were plate into 100 μL of Promocell growth medium containing ASO or compounds at the described concentrations.
(§2) On day 0, change to differentiation media. Remove plates from the incubator and aspirate the growth medium, Wash once with PBS, 100 μL for 96-wells and 1 mL for a 6-well plate, Add 100 μL or 2 mL of differentiation medium per well, 96- or 6-well respectively. Add antisense oligonucleotides or drug at the desire concentration and put back in the incubator. Fusion should start within day 1-2. Incubate for 3-4 days.
(§3) Cells were removed from the incubator and media aspirated. Quickly lysed following one of the following protocols: For lysis in 96-well plates direct lysis and one-step RT-Preamp qPCR protocol described below. For each 96-well prepare a mix containing: 19.5 μL Roche Realtime Ready lysis buffer, 0.25 μL RNAse inhibitor, 0.25 μL DNAseI (from Thermo not the included one in the kit). 20 μL of the mix was added to each well, mix 5 times and incubated 5 minutes at RT or alternatively shaken vigorously for 15 minutes. Lysis was observed under the microscope. Samples were frozen −80° C. at least for 15 minutes,
(§4) For qPCR, dilute 1:10 and use 2 μL for a 10 μL 1-step RT-qPCR reaction. For detection of GAPDH, RPLP0, TBP, MYOG, FRG1, MYH3, ACTN2, etc.). Per 10 μL reaction: RNA (1:10 dilution lysate) 2 μL, Fast Advanced Taqman Master Mix (2×) 5 μL, RT enzyme mix (40×) 0.25 μL, Taqman probe set (20×) 0.5 μL, H2O 2.25 μL. The following reaction protocol was run on the QuantStudio 7: 48° C. for 15 min, 50° C. for 2 min, 95° C. for 30 sec, 40×, 95° C. for 5 sec, 60° C. for 30 sec, then plates were read as specified by the manufacturer (Thermo). For 1-step RT-Preamplification used for detection of DUX4 downstream genes, i.e. MBD3L2, ZSCAN4, LEUTX, TRIM43, KHDC1L. POL2RA-VIC was used as Endogenous control). Per 10 μL reaction: RNA (1:10 dilution lysate) 2.25 μL, Taqman Pre-Amp Master Mix (2×) 5 μL, RT enzyme mix (40×) 0.25 μL, Taqman probe set (0.2×)*2.5 μL, * Pooling the TaqMan Assays: equal volumes of each 20× TaqMan® Gene Expression Assay, up to 100 assays were combined. For example, to pool 50 TaqMan assays, 10 μL of each assay were combined in a microcentrifuge tube. The pooled TaqMan assays were diluted using 1×TE buffer so that each assay is at a final concentration of 0.2×. For the above example, add 500 μL of 1×TE buffer to the pooled TaqMan assays for a total final volume of 1 mL. The QuantStudio7 protocol was used 48° C. 15 min, 95° C. 10 min, 10 cycles: 95° C. 15 sec, 60° C. 4 min, 4° C. infinite. Samples were then diluted to 50 μL and continue with the qPCR step. Per 10 μL reaction: Preamp dilution 2 μL, Fast Advanced Taqman Master Mix (2×) 5 μL, Taqman probe set (20×) 0.5 μL, H2O 2.5 μL. When multiplexing the volume was adjusted to 10 μL total). The following program was run on the QuantStudio7: 50° C. for 2 min, 95° C. for 30 sec, 40×, 95° C. for 5 sec, 60° C. for 30 sec, plates were read as per the manufacturers specifications (Thermo).
(§5) After treatment, the control and treated cells were processed for realtime PCR quantification of MBD3L2 mRNA (DUX4 downstream gene) and myogenin (MYOG) mRNA (control) expression.

myogenin (MYOG) mRNA = assay: Myogenin (MYOG) mRNA expression by qPCR in FSHD myotubes (control gene)
Experimental: as §1, §2, §3
as §4, with “For the above example, add 500 μL of 1×TE buffer to the pooled TaqMan assays for a total final volume of 1 mL. The QuantStudio7 protocol was used 48° C. 15 min, 95° C. 10 min, 10 cycles: 95° C. 15 sec, 60° C. 4 min, 4° C. infinite. Samples were then diluted to 50 μL and continue with the qPCR step. Per 10 μL reaction: Preamp dilution 2 μL, Fast Advanced Taqman Master Mix (2×) 5 μL, Taqman probe set (20×) 0.5 μL, H2O 2.5 μL. When multiplexing the volume was adjusted to 10 μL total).” left out
as §5

FSHD myotubes = assay: Myotube formation / fusion, MHC and DAPI staining; details: FSHD myotubes; 10, 100, and 1000 nM
Experimental: as §2
Briefly, cells were fixed in 4% paraformaldehyde and […] for 10 min at room temperature. Cells were permeabilized with PBST (1×PBS solution with 0.1% Triton X-100) before blocking with 10% Normal Donkey Serum or 3% BSA (NDS) in PBST. […] DUX4 was detected by immunocytochemistry using the E5-5 antibody in differentiated FSHD myotubes. Activated Caspase-3 was detected cell signaling antibody that we're using for ICC, Asp175 (https://www.cellsignal.com/products/primary-antibodies/cleaved-caspase-3-asp175-antibody/9661).
Immortalized FHSD myotubes were differentiated and treated with DMSO vehicle control or FTX-1821 at concentrations of 1 μM, 0.33 μM, 0.11 μM, or 0.037 μM. […] The nuclei in myotubes were quantified according to MHC staining (FIG. 8B).

active Caspase-3 = assay: Apoptosis by active Caspase-3 in FSHD myotubes; details: FSHD1 and FSHD2 lines; 1 μM
Experimental: Briefly, cells were fixed in 4% paraformaldehyde and […] for 10 min at room temperature. Cells were permeabilized with PBST (1×PBS solution with 0.1% Triton X-100) before blocking with 10% Normal Donkey Serum or 3% BSA (NDS) in PBST. Cells were then incubated with appropriately diluted primary antibodies in PBST with 5% NDS for 1 hours at room temperature or 12 hours at 4° C., washed with PBST for 3 times at room temperature and then incubated with desired secondary antibodies in TBST with 5% NDS and DAPI to counter stain the nuclei. DUX4 was detected by immunocytochemistry using the E5-5 antibody in differentiated FSHD myotubes. Activated Caspase-3 was detected cell signaling antibody that we're using for ICC, Asp175 (https://www.cellsignal.com/products/primary-antibodies/cleaved-caspase-3-asp175-antibody/9661).
Apoptosis was measured by active Caspase-3 levels in FSHD myotubes in vitro as described in Materials and Methods. Apoptosis was detected in a sporadic manner in a subset of myotubes in culture as shown by the white circles and magnified region in FIG. 9A. Active Caspase-3 signal was quantified in FSHD myotubes that had been treated with FTX-1821 at different concentrations (FIG. 9B). […] No change in active Caspase-3 signal was observed following DMSO treatment.

SMILES: Cn1c(=O)c(Oc2ccc(F)cc2F)cc2cnc(NC(CCO)CCO)nc21 [Pamapimod, 6-(2,4-difluorophenoxy)-2-((1,5-dihydroxypentan-3-yl)amino)-8-methylpyrido[2,3-d]pyrimidin-7(8H)-one]
- MBD3L2 mRNA expression ([1]; FSHD1 and FSHD2 primary patient myoblast lines, 1 μM): reduction of MBD3L2
- MBD3L2 downstream gene mRNA levels normalized to POLR2A mRNA ([1]; FSHD myotubes, 10, 100, and 1000 nM vs DMSO): dose-dependently reduced
- IC50 ([1]; Homo sapiens, Myotube, read-out: IC50, reduction of MBD3L2 mRNA expression, FSHD myotubes, realtime PCR): < 0.01 µM
- MBD3L2 expression levels ([1]; myotubes of four FSHD patient lines FTCE-016, -020, -197, -196, 1 μM): reduced in all of the FSHD lines
- MYOG mRNA expression (myogenin (MYOG) mRNA): no impact
- differentiation into myotubes (FSHD myotubes): without impacting
- apoptosis (active caspase-3) (active Caspase-3): reduction in apoptosis
